Results published in patent publication US20160250208A1, “TREATING ORGAN-SPECIFIC T CELL MEDIATED AUTOIMMUNE DISEASES” (UNIVERSITY OF MASSACHUSETTS, priority 2013, published 2016).

Tests used:
SVEC4-10 cells = test: Trans-endothelial migration assay across SVEC4-10 endothelial cells; type: cell-based, mouse; settings: DKO LN cells pre-activated with Ionomycin 2 μg/ml for 2 hours; FIG. 8F
14 other kinases = settings: cited from earlier work
ITK = target: T1, ITK (Homo sapiens, UniProt Q08881); settings: ATP-competitive; cited from earlier work
T1 sequence (Q08881 1-620): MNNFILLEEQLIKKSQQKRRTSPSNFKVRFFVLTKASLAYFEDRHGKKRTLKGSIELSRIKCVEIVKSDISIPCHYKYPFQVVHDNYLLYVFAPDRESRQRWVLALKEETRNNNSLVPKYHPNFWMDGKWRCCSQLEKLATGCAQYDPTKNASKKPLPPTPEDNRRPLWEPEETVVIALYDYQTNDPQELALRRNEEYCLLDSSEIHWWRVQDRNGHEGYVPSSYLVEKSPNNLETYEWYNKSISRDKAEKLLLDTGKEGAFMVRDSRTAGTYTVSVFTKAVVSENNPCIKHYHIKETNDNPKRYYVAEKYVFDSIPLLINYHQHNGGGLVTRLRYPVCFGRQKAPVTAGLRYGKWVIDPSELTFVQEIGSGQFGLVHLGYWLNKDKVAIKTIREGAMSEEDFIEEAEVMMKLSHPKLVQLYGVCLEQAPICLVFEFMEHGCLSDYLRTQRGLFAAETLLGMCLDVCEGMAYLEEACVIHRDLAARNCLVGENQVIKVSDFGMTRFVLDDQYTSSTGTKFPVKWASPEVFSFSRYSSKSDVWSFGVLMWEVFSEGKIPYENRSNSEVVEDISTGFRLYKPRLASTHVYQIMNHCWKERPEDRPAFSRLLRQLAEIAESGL

Ctla4−/− mice = test: Treatment of Ctla4−/− mice with ITK inhibitors (survival, T cell activation, LN size, tissue infiltration); type: in vivo, mouse; settings: BMS509744 at 50 mg/kg, 10n at 1 mg/kg and 10 mg/kg, starting at 10 days of age; FIG. 5A
Method: Control mice (n=10) were injected with solvent alone. […] Data are representative of three experiments with 4-10 mice in each group per experiment.

Fyn, IR, Lck, Btk = settings: cited from earlier work

Structure (SMILES) | frequency of DKO T cells migrating across the endothelium (SVEC4-10 cells) | activity against 14 other kinases (14 other kinases) | inhibition of ITK kinase activity (ITK) | lifespan of Ctla4−/− mice (Ctla4−/− mice) | inhibition of Fyn, IR, Lck, Btk (Fyn, IR, Lck, Btk)
C[C@H](CCC(=O)O)C[C@H](C)C[C@H](C)C(=O)/C=C(\O)[C@H](C)C[C@H](C)C/C=C/[C@@H](C)[C@@H](O)[C@@H](C)[C@@H](O)C[C@@H]1CC[C@@](C)([C@H]2CC[C@@](C)([C@@H](C)O)O2)O1 [Ionomycin] | increased the frequency of DKO T cells that were able to migrate across the endothelium | – | – | – | –
COc1cc(C)c(Sc2cnc(NC(=O)c3ccc(CNC(C)C(C)(C)C)cc3)s2)cc1C(=O)N1CCN(C(C)=O)CC1 (centres unmarked) [BMS509744] | – | little or no activity | potently inhibits ITK kinase activity | significantly increased their lifespan | only at high concentrations
